This is an account of results in US12053465B2, “KCC2 expression enhancing compounds and uses thereof” (Whitehead Institute for Biomedical Research, priority 2017, dated 2024).

Common to all, as to format: cell-based
Assay [1] concerns KCC2 expression. As to the kind of experiment: Western blot of KCC2 in cultured human RTT neurons. The following applies: Western blot; for concentration at which treatment significantly increases KCC2 expression: cultured ESC-derived human RTT neurons; for KCC2 expression: cultured human RTT neurons. The gist of the method:
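Cultured neurons lysed in RIPA buffer (pH 7.6) with sonication; immunoblotted on PVDF with KCC2 antibody (1:2000) overnight at 4° C., HRP secondary.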
Background: In western blotting, separated proteins are transferred to a membrane and probed.

In the next assay the test system is human RTT neurons. Put plainly: mEPSC whole-cell patch-clamp recording in cultured human RTT neurons. The following applies: for mEPSC frequency enhancement: RTT neurons with KCC2 shRNA transfection; for frequency of mEPSCs / mEPSC amplitude: cultured human RTT neurons; for mEPSC amplitude: vs DMSO control. The text has this: Moreover, a reduction in the number or the strength of excitatory glutamatergic synapses in RTT neurons has been observed in postmortem RTT patient brain samples (30), mouse models of RTT (53), and human stem cell-derived RTT neurons (54). Electrophysiology recording was utilized to assess whether KEECs could rescue the deficits in EGABA and excitatory synaptic transmission of RTT neurons. […] We further investigated whether the beneficial effect of KEECs is a direct result of the increases in neuronal KCC2 gene expression. […] Deficits in a number of morphological measurements, including nuclei size and neurite complexity and branching, are hallmarks of RTT neurons (54-56). […] To validate the morphological measurements, electrophysiological measurements of the neuronal membrane capacitance (Cm), an indicator of neuronal cell size (57) that is reduced in RTT neurons, were conducted.
Functionally mature human neuron cultures were obtained by seeding human WT or isogenic RTT NPCs on a layer of primary mouse astrocyte culture as previously described (57). In the cultured WT human neurons, KCC2 expression reaches mature level between 2-3 months (7). We therefore treated the WT or RTT human neurons 8-12 weeks in culture, with compounds for a duration of two weeks before conducting whole-cell patch-clamp recording. The extracellular bath solution, that perfused the recording chamber, consists of (in mM): 120 NaCl, 30 glucose, 25 HEPES, 5 KCl, 2 CaCl2, 1 MgCl2. The pH was adjusted to 7.3 with NaOH. The high-chloride internal pipette solution consists of (in mM): 147 KCl, 5 Na-phosphocreatine, 2 EGTA, 10 HEPES, 4 MgATP, and 0.5 Na2GTP; the pH 7.3 was adjusted with KOH. To record mini EPSC, the membrane potential was held at −70 mV, and 0.5 μM of TTX and 50 μM Picrotoxin were applied with bath solution to block action potential and GABAergic synaptic transmission.
To evoke GABA response, a pipette filled with 100 μM GABA solution was positioned 5-10 μm away from the neuronal cell body. Air pulses at the pressure of 10 p.s.i. and duration of 100 ms were generated with a Picrospritzer (Parker Instrumentation) to puff GABA solution onto neuronal cell body. Neuronal response to GABA puffs were recorded at different membrane holding potentials from −90 mV to +30 mV, and the EGABA values were calculated with linear regression. Electrophysiological signals were recorded with Multiclamp 700A patch-clamp amplifier and data were collected with Clamp 9 software (Molecular Devices, Palo Alto, CA), sampled at 10 kHz and filtered at 1 KHz. Off-line data analyses of mEPSC synaptic events were performed with MiniAnalysis software (Synaptosoft, Decator, GA). All experiments were performed at room temperature. A sample size of 5-8 neurons was used for EGABA measurements, while a sample size of 14-19 neurons was used for mEPSC measurements. All data were presented as mean±SEM. ANOVA test followed by the Bonferroni correction were used for statistical analysis. The Kolmogorov-Smirnov test was employed to compare the cumulative distribution between two datasets.
A general note: Patch clamp records ionic current or voltage across a cell membrane.

Assay [2] concerns KCC2 expression. As to the kind of experiment: Western blot of KCC2 in organotypic mouse brain slices. The following applies: organotypic neonatal mouse brain slices, treated 7 days, vs DMSO, MeBIO or medium-only control.

“Also recorded” adds a separate entry of the source.

On to `O=C1Nc2cc(Br)ccc2/C1=C1/Nc2ccccc2/C1=N\O` [BIO, (2Z,3E)-6′-bromo-3-(hydroxyimino)-[2,3′-biindolinylidene]-2′-one], for which, in the assay on KCC2 expression [1], the “concentration at which treatment significantly increases KCC2 expression” value stood at 0.3 µM and the KCC2 expression entry is given as “increased KCC2 expression levels significantly”. In the assay on KCC2 expression [1] (listed as KIN 001-043), the KCC2 expression entry was “increase KCC2 expression”. In the assay on human RTT neurons, the mEPSC frequency enhancement result was “abolished the effect”, the “frequency of mEPSCs” value is “significantly increased the frequency of mEPSCs to levels equivalent to WT control” and the mEPSC amplitude result was “significantly increased mEPSC amplitude”. In addition, the KCC2 protein level entry in the assay on KCC2 expression [2] is reported as “enhanced KCC2 expression levels”.

`O=C(c1ccc(/C=C/c2n[nH]c3ccccc23)cc1)N1CCNCC1` [KW-2449, (E)-(4-(2-(1H-indazol-3-yl)vinyl)phenyl)(piperazin-1-yl)methanone]: in the assay on KCC2 expression [1], the “concentration at which treatment significantly increases KCC2 expression” value was 0.1 µM and the KCC2 expression entry is “increase KCC2 expression; also recorded: significant enhancement of KCC2 expression”. Further, in the assay with human RTT neurons, the mEPSC frequency enhancement result is “abolished the effect”, the “frequency of mEPSCs” value is given as “significantly increased the frequency of mEPSCs to levels equivalent to WT control” and the mEPSC amplitude entry is reported as “significantly increased mEPSC amplitude”. Further, the KCC2 protein level entry in the assay on KCC2 expression [2] was “enhanced KCC2 expression levels”.
